Measurements reported in a melting point compilation (Tetko et al.; mined from patent text by program, amines drawn as free bases though some values may be those of a salt).

Row | SMILES | melting point
1 | COC(=O)[C@@H](C)NC(=O)CBr | 51 to 52 °C
2 | C=CC(=O)N1C(C)(C)CC(OC(=O)CCCC(C)(C)c2cc(OC)c(C(C)(C)CCCC(=O)OC3CC(C)(C)N(C(=O)C=C)C(C)(C)C3)cc2O)CC1(C)C | 50 to 52 °C
3 | COC(=O)CC1c2ccccc2C(=O)N1c1ccc(Cl)cn1 (centres undefined) | 110 to 111 °C
4 | CN(C)CCCC#Cc1cnc(NC(=O)OC(C)(C)C)nc1 | 119 to 120 °C
5 | COCC1OC(n2cnc3c(NCc4cccc(I)c4)ncnc32)C(O)C1O (centres undefined) | 155 to 157 °C
6 | Cc1c(Br)sc2cc(C(=O)Cn3ccnc3)ccc12 | 184 to 186 °C
7 | Cc1cc(NC(=O)NS(=O)(=O)c2ccccc2)cc(C)c1S(=O)(=O)C[N+](=O)[O-] | 140 to 142 °C
8 | COc1cc(-c2ccc(Cl)s2)cc2oc(=O)c(C)c(C)c12 | 152 to 154 °C
9 | Cc1cc(N)cnc1CCCC#N | 103 to 105 °C
10 | Nc1cccc2c1-c1nc3ccccc3cc1CC2 | 138 to 140 °C
11 | CC(c1oc2ccccc2c(=O)c1-c1cccc(F)c1)n1nc(-c2ccc(OCc3ccccc3)cc2)c2c(N)ncnc21 (centres undefined) | 176 to 178 °C
12 | N#Cc1cccc(-n2ccc3cc(Cl)ccc32)c1 | 120 to 122 °C
13 | CNc1ccc(C(=O)N(CCN2CCC(C(=O)c3ccc(F)cc3)CC2)c2cccnc2)cc1 | 90 to 96 °C
14 | CN(Cc1ccccc1)c1nc(N)nc(-c2cc(Cl)ccc2Cl)n1 | 163 to 164 °C
15 | CCCn1c(=O)c2c(NC)n[nH]c2n(Cc2cccs2)c1=O | > 300 °C
16 | COc1cc([N+](=O)[O-])c2ncccc2c1OCc1ccc(Cl)cc1 | 115 to 116 °C
17 | CC(=O)Nc1ccc2c(c1)C(=O)CCC2 | 165 to 166 °C
18 | COc1ccccc1CNc1ccc2cc(Nc3nnc(C)o3)ccc2n1 | 183 °C
19 | COc1ccc(C)cc1NC(=O)Nc1ccc(N2CCCN(C(=O)Nc3ccc(OCCO)cc3C(F)(F)F)CC2)cc1 | 118 to 120 °C
20 | CN1CCN(c2ccc(C(=O)N[C@H]3CC[C@H](CCN4CCN(c5nccc6c5CCO6)CC4)CC3)cc2)CC1 | 236 °C
21 | O=C(c1ccnc(Cl)c1)N1CC2(CCN(CC=Cc3ccc(C(F)(F)F)cc3)CC2)c2cc(Cl)ccc21 | 130 °C
22 | O=C(O)c1cc(C(F)(F)F)ccc1OCc1ccccc1 | 94 to 95 °C
23 | O=C(O)c1ccc(Cl)cc1C(=O)NCCCCc1cccnc1 | 152 to 154 °C
24 | Cc1cc(C(N)=O)ncc1C(c1c(F)ccc(F)c1F)S(=O)(=O)CCC(F)F (centres undefined) | 192 °C
25 | CCOC(=O)NNC(=O)NCCOc1ccccc1 | 170 to 173 °C

Row | SMILES | melting point
26 | O=C1CCCc2nc3ccccc3c(NCc3ccc(OCc4ccccc4)cc3)c21 | 153 to 157 °C
27 | O=C(OCc1ccc(Cl)cc1)C(=C1NCCCS1)[N+](=O)[O-] | 119 to 120 °C
28 | CN(C)C1(c2ccccc2)CCC(CNC(=O)NCCCc2ccccc2)CC1 (centres undefined) | 100 to 110 °C
29 | CCc1cc2c(ccc(=O)n2Cc2ccc([N+](=O)[O-])cc2)c(CC)n1 | 153 to 156 °C
30 | CN(CCOc1ccc(CC(F)C(=O)O)cc1)c1nc2ccccc2o1 (centres undefined) | 146 to 148 °C
31 | CC(Cc1ccc(OCc2ccccc2)cc1)NCC(O)c1cccc(Cl)c1 (centres undefined) | 95 to 99 °C
32 | Cc1ccc(-c2ccc(N3CCCN(c4ccc(-c5ccc(C)cc5)cn4)CC3)nc2)cc1 | 245 to 247 °C
33 | COC(=O)[C@@H](CCSC)NC(=O)C[C@H]1O[C@H](c2cccc(OC)c2OC)c2cc(Cl)ccc2N(CC(C)(C)CO)C1=O | 142 to 143 °C
34 | BrCCCCOc1ccc(OCc2ccccc2)cc1 | 70 to 72 °C
35 | O=C1CCN(c2ccc(C=C3SC(=O)NC3=O)cc2F)CC1 | > 200 °C
36 | Cn1c(C(=O)N[C@H]2CCCC[C@H]2C(=O)N[C@H](C#N)CO)cc2ccccc21 | 78.4 to 79 °C
37 | CS(=O)(=O)Nc1ccc([N+](=O)[O-])cc1OC1CCCCC1 | 136 to 137 °C
38 | COc1cc(C(=O)c2c(C)c(OC)c3ccc(C(=O)O)cn23)ccc1[N+](=O)[O-] | 287 °C
39 | CCOC(=O)CCN1CCN2c3ccccc3Cc3ccccc3C2C1 (centres undefined) | 159 to 160 °C
40 | COc1cc2c(c3c1OC(C)(C)C3)C(c1ccncc1)=NC(C)(C)C2 | 173 to 175 °C
41 | Cc1coc(NC(=O)C(c2ccccc2)c2ccccc2)n1 | 209 to 211 °C
42 | CCC(=O)C(=CN(C)C)Oc1cc(Cl)cc(Cl)c1 | 96 to 97 °C
43 | N#Cc1cccc2c1CC(=O)c1cc(F)ccc1S2 | 174 to 175 °C
44 | NS(=O)(=O)c1ccc2c(c1)CCO2 | 163 to 164 °C
45 | O=S1(=O)c2ccccc2-n2c(Cl)nnc21 | 218 to 220 °C
46 | CC[C@@H](O)CC(=O)N[C@H]1CC[C@H](CCN2CCC(c3cccc4c3CCO4)CC2)CC1 | 201 °C
47 | COCOc1ccc(C=O)c(Cl)c1OCc1ccccc1 | 66 to 67 °C
48 | Cc1nc(-n2ccc(C3CC3)cc2=O)sc1C(=O)NCc1ccccc1 | 149 to 151 °C
49 | ON=c1cc(-c2cc3cccn3cn2)oc2cccc(C(F)(F)F)c12 | 255 to 257 °C
50 | CN1CN(C(=O)c2c(F)cccc2F)C(=O)N(c2ccc(S(=O)C(F)F)cc2F)C1 (centres undefined) | 50 to 55 °C

Row | SMILES | melting point
51 | Cc1cccc(Nc2nnc(Cc3ccncc3)c3ccccc23)c1 | 141 to 143 °C
52 | COC=C(C(=O)OC)c1ccccc1COc1ccccc1 | 60 °C
53 | COc1cc2c(c3c1OC(C)(C)C3)C(c1cccc(Br)c1)=NCC2(C)C | 127 to 129 °C
54 | C=CCSCC(O)(Cn1cncn1)c1ccc(Cl)cc1Cl (centres undefined) | 92 to 94 °C
55 | CCn1c(=O)n(C)c(=O)c2c(C(=O)N3C[C@](C)(O)CO3)c(Cn3c(C)nc(Cl)c3Cl)sc21 | 130 to 133 °C
56 | O=C(c1ccc(OCCN2CCCC2)cc1)c1c(-c2ccc(O)cc2)sc2cc(O)ccc12 | 146 to 147 °C
57 | CC1(C)c2ccc(CCN3CCN(c4noc5ccccc45)CC3)cc2C(C)(C)C1NS(C)(=O)=O (centres undefined) | 75 to 80 °C
58 | CC(=O)Nc1ccc(CC(=O)O)cc1Br | 157 to 159 °C
59 | O=C1Nc2c(Br)cc(Br)c3cccc1c23 | 259 to 260 °C
60 | CCC(=O)NC1=NN(c2ccccc2)C(c2ccccc2)C1 (centres undefined) | 148 °C
61 | N#Cc1cc(F)c(-n2ncc(Cl)c(Cl)c2=O)cc1F | 206 °C
62 | COc1cc(CN2CCN(C)CC2C2=NCCN2)cc(OC)c1OC (centres undefined) | 185 to 187 °C
63 | COc1ccccc1N1CCN([C@@H]2Cc3cccc(O)c3C[C@H]2O)CC1 (relative stereo) | 199 to 201 °C
64 | CCC(CC)(CC(=O)Nc1cccc(OCc2ccc3ccc(F)cc3n2)c1)C(=O)O | 92 to 93 °C
65 | CCOC(=O)COc1cccc(C2C(C(=O)OCC)=C(C)NC(C)=C2C(=O)OCC)c1 | 108 °C
66 | CCCCC(=O)Nc1ccc(N)cc1Cl | 96.5 to 99 °C
67 | CC(=O)C(C)(C)C(Cl)C=Cc1ccccc1 (centres undefined) | 71 °C
68 | CCNC(=O)c1c(C2CC2)nc(CC)n1Cc1ccc2oc(-c3ccccc3C(=O)O)c(Br)c2c1 | 182 to 184 °C
69 | NC(/C=C(/F)P(=O)(O)O)CCc1ccc(Sc2cccc(OCc3ccccc3)c2)cc1Cl (centres undefined) | 285 to 288 °C
70 | CCCNC(=O)C(C)Cc1ccc2cccc(Cc3ccc(C(=O)OC)cc3OC)c2c1 (centres undefined) | 130 °C
71 | CC(Cc1ccccc1)(C(=O)NO)S(=O)(=O)c1cccs1 (centres undefined) | 116 to 117 °C
72 | COc1ccc2c(c1)S(=O)(=O)N=CN2CCF | 123 to 128 °C
73 | O=C(NCc1cccc2ccccc12)C1CCc2[nH]cnc2C1 (centres undefined) | 142 to 144 °C
74 | C[C@@H](N[C@@H](CC(=O)O)Cc1cc(F)c(F)cc1F)c1ccccc1 | 144 °C
75 | NC(=S)c1ncn(C2OC(CO)C(O)C2O)n1 (centres undefined) | 173 to 175 °C

Row | SMILES | melting point
76 | C=CCNc1nc(NCC=C(C)C)c2scc(C)c2n1 | 114 to 115 °C
77 | CC(C)(C)OC(=O)C[C@@H](CC1CCCC1)C(=O)O | 86.5 to 88 °C
78 | COc1cc(C(C)(C)CCCC(=O)OC2CC(C)(C)NC(C)(C)C2)c(O)cc1C(C)(C)CCCC(=O)OC1CC(C)(C)NC(C)(C)C1 | 165 to 168 °C
79 | CCCCOC(=O)[C@H](Cc1ccc(O)cc1)NC(=O)C1(NC(=O)C2(S)CCCC2)CCCC1 | 106 to 107 °C
80 | CCc1nc2cc(/C=C/C(=O)NO)c(F)cc2c(=O)n1CCc1ccccc1 | 219 to 221 °C
81 | CC(C)Cn1c(CO)c(-c2cccc(F)c2)c2cc(OCc3ccccc3)ccc2c1=O | 146 °C
82 | CCOC(=O)c1cc2c(OC)cc3c(c2[nH]1)CCCC3 | 202 to 203 °C
83 | O=C1CCC(c2ccc(N3CC(CO)OC3=O)cc2)CC1 (racemic) | 152 °C
84 | CCN(CC)CCSC1=C(C#N)C(c2ccccc2)(c2cccnc2)C(=O)N1 (centres undefined) | 133 °C
85 | CCCCc1oc2ccccc2c1S(=O)(=O)c1ccc(O)cc1 | 163 to 165 °C
86 | CN(C)CCCn1cc(C(=O)NCc2ccc(Cl)cc2)c(=O)c2cc(C#CCO)ccc21 | 172 to 175 °C
87 | Nc1ccc(NC2CCCCC2)cc1 | 59 to 61 °C
88 | CC=CC=NNC(=O)c1cnccn1 | 192 to 194 °C
89 | CCN(CC)c1nc(Nc2ccc3cc(-c4ccccc4)c(=O)oc3c2)nc(N2CCCC(CO)C2)n1 (centres undefined) | 182 to 183 °C
90 | CCCCCNS(=O)(=O)NC(=O)/C=C/c1c(C)nn(C)c1-n1ccc2cc(Cl)ccc21 | 184 °C
91 | CCOC(=O)Cc1csc(NC(=O)C(N)Cc2cccs2)n1 (centres undefined) | 98 to 102 °C
92 | CCCSc1sc(C(=O)N2CCCC2)c2c1C(=O)CC(C)(C)C2 | 117 to 119 °C
93 | O=C1Nc2cnncc2C(=O)C1c1c(F)cc(F)cc1F (centres undefined) | > 300 °C
94 | COC(=O)c1cccc2c1ccn2C | 194 to 195 °C
95 | O=c1nc(-c2cccc(Cl)c2)c2cc(C3(c4ccc(Cl)cc4)OCCO3)ccc2[nH]1 | 220 °C
96 | COc1cc(OCC(O)CCl)cc2oc3ccccc3c(=O)c12 (centres undefined) | 107 °C
97 | COC(=O)C1CCc2cc(C(=O)c3ccccc3Cl)c(O)cc21 (centres undefined) | 188 to 190 °C
98 | O=C(O)C[C@@]1(C[N+](=O)[O-])C[C@H]2CCC[C@H]21 | 64 to 66 °C
99 | CN(Cc1cc2cc(Cl)ccc2o1)C1CCN(c2ccc(OC[C@@]3(C)Cn4cc([N+](=O)[O-])nc4O3)cc2)CC1 | 207 to 210 °C
